Like-named read-outs stand apart in the source and are kept apart here. No end group written: not given here.
How the values were obtained:
[1] = system: Caski cells; assay: Fluorescent quantitation of FITC-labeled peptide uptake; assay type: cell-based, human; conditions: for intracellular fluorescence intensity of FITC-labeled CPPs with GSM combination: Caski cells co-incubated with glucose, sucrose and manntiol, fluorescence quantitation (Figure 6A)
Protocol: Before the 10 μM FITC-labeled peptides addition, cells were washed with phosphate-buffered saline (0.1 M PBS, pH 7.4) for 3 times. After internalization for 1 h at 37°C, cells were washed 3 times with PBS, and then observed under fluorescence microscope (Nikon, Japan) using a bandpass filter (detects FITC). In some experiments, cell was pretreated with 5% (v/v %) of DMSO in serum-free medium.
Intracellular fluorescence intensity of cells can be quantified using quantitative analysis by Multimode Spectrophotometry (Tecan 2000, Mannedorf, Switzerland). Briefly, after peptide incubation procedure shown above, cells were washed 3 times with PBS, lysed by 0.1 M NaOH at room temperature, and then centrifuged at 14000 g for 5 min. […] The fluorescence of cellular uptake is expressed as fluorescence intensity per mg of total cellular protein (protein concentration were determined using Bradford protein assay). All experiments were repeated at least three times and always performed in triplicate.

[2] = system: Caski cells; assay: MTT cell viability analysis; conditions: glycerol (30 mM) and glycine (15 mM) together
Protocol: MTT assay was used to assess cell viability. Briefly, cells (4 × 10^4 cells) were seeded in one well of 96-well plates and cultivated in an RPMI-1640 medium for 24 h. Cells were washed with PBS and then adding different concentrations of supplements with a serum-free medium, incubated for 2 h at 37°C and washed with PBS twice, then incubated with fresh medium containing serum for 24 h. Then, 20 μl of MTT (5.5 mg/ml) in serum-free media was added directly to each well and incubated for 4 h at 37°C. Removing the supernatant and then adding 100 μl of DMSO, and incubated at 37°C for another 30 min before quantifying the absorbance at 550 nm.

[3] = system: HepG2 cells; assay: Fluorescent quantitation of FITC-labeled peptide uptake; conditions: HepG2 cells co-incubated with glucose, sucrose and manntiol; fluorescence quantitation (Figure 6B)
Protocol: (§1) HeLa, Siha, Caski, HepG2, A549 or B16 cells (density: 5 × 10^5 cells per well) were seeded into 24-well-plates (Greiner, Germany) and cultivated in RPMI-1640 medium for 24 h. Before the 10 μM FITC-labeled peptides addition, cells were washed with phosphate-buffered saline (0.1 M PBS, pH 7.4) for 3 times. After internalization for 1 h at 37°C, cells were washed 3 times with PBS, and then observed under fluorescence microscope (Nikon, Japan) using a bandpass filter (detects FITC). In some experiments, cell was pretreated with 5% (v/v %) of DMSO in serum-free medium.
Intracellular fluorescence intensity of cells can be quantified using quantitative analysis by Multimode Spectrophotometry (Tecan 2000, Mannedorf, Switzerland). Briefly, after peptide incubation procedure shown above, cells were washed 3 times with PBS, lysed by 0.1 M NaOH at room temperature, and then centrifuged at 14000 g for 5 min. The fluorescence intensity of the supernatant was measured at the wavelength of 494/518 nm in a Multimode Microplate Reader. The fluorescence of cellular uptake is expressed as fluorescence intensity per mg of total cellular protein (protein concentration were determined using Bradford protein assay). All experiments were repeated at least three times and always performed in triplicate.

[4] = system: Caski cells
Protocol: as §1

[5] = system: A549 and Siha cells; assay type: cell-based, human
Protocol: as §1

[6] = glycerol and glycine combination or separately, fluorescence quantitation (Figure 4D)

OCC(O)CO [glycerol]
penetration enhancing activity on TAT-FITC [1, 6]: no significant penetration enhancing activity

NCC(=O)O [glycine]
cell viability (MTT) with glycerol and glycine addition during GSM treatment ([2]; at 24 h (Figure 4A)): rescue the cell viability
cell viability (MTT) with glycerol and glycine addition during GSM treatment ([2]; at 48 h (Figure 4B)): rescue the cell viability
cell viability (MTT) with glycerol and glycine addition during GSM treatment ([2]; at 72 h (Figure 4C)): rescue the cell viability
penetration enhancing activity on TAT-FITC [1]: no significant penetration enhancing activity

KIPLPRFKLKCIFCKKRRKR [hPP10, newly found human-derived CPP labeled with FITC]
intracellular fluorescence intensity of FITC-labeled CPPs with GSM combination [1]: facilitate the penetration efficiency

RKDRRGGEMMKQKRQRE [NLS]
intracellular fluorescence intensity of FITC-labeled CPPs with GSM combination [1]: facilitate the penetration efficiency
intracellular fluorescence intensity of FITC-labeled CPPs with GSM combination [3]: facilitate the penetration efficiency

YGRKKRRQRRRK [TAT-FITC]
TAT penetration efficiency with galactose treatment [4]: partially enhance the penetration efficiency
enhancement of TAT-FITC penetration by chloroquine [4]: limited
TAT penetration efficiency at different temperatures ([1]; 4 and 37°C, GSM combination (Figure 7B)): decreased at lower temperatures
TAT penetration with GSM combination, effect of washing method ([1]; PBS washing vs 0.025% trypsin washing (Supplementary Figure S3)): no difference between PBS washing and 0.025% trypsin washing method
TAT-FITC uptake with glucose and manntiol combination ([1]; co-incubated with glucose and manntiol (100 to 300 mM) 1 h, then TAT-FITC 1 h at 37°C, fluorescence quantitation (Figure 3B)): improved
TAT-FITC uptake with glucose and sucrose combination ([1]; co-incubated with glucose and sucrose (100 to 300 mM) 1 h, then TAT-FITC 1 h at 37°C, fluorescence quantitation (Figure 3A)): improved
TAT-FITC uptake with GSM combination ([1]; co-incubated with glucose, sucrose and manntiol (50 to 300 mM) 1 h, then TAT-FITC 1 h at 37°C, fluorescence quantitation (Figure 3D)): increasing as the concentration gradient
TAT-FITC uptake with sucrose and manntiol combination ([1]; co-incubated with sucrose and manntiol (100 to 300 mM) 1 h, then TAT-FITC 1 h at 37°C, fluorescence quantitation (Figure 3C)): improved
TAT penetration enhancement, dose ranging ([1]; glucose, sucrose, manntiol from 200 to 600 mM, lysate fluorescence 494/518 nm per mg protein (Figure 2B)): dependent on the concentration of glucose, sucrose and manntiol
TAT-FITC penetration efficiency in the presence of glycerol and glycine [1, 6]: not observed
intracellular delivery efficiency of TAT-FITC with NH4Cl ([1]; lysosomotrophic neutralizing agent NH4Cl, in the presence of GSM combination (Figure 7D)): significantly decreased
intracellular delivery efficiency of TAT-FITC with NaN3 ([1]; metabolic inhibitor NaN3, in the presence of GSM combination (Figure 7C)): significantly decreased
TAT penetration efficiency with serum ([1]; with vs without 10% fetal bovine serum (FBS), GSM combination (Figure 7A)): remains decreased
TAT uptake with glucose and manntiol in different cell lines [5]: enhance the penetration of TAT uptake

From PMC5342692, “Hyperosmotic treatment synergistically boost efficiency of cell-permeable peptides” (Oncotarget, 2016)
